{
  "source": "patent US20030045582A1",
  "about": "“Method for treating hyperglycemia” (Alteon, Inc., priority 2000, published 2003)",
  "key": {"[1]": {"tested_on": "patients suffering from Type I diabetes with overt diabetic nephropathy", "assay": "Multicenter, randomized, double-blind, placebo-controlled study: time to doubling of baseline serum creatinine", "assay_type": "in vivo, human", "method": "(§1) Renal function was measured every three months using serum creatinine levels, and creatinine clearance rates. In addition, the glomerular filtration rate was measured at entry and every six months. Study participants were treated at one of two dosage levels, (150 mg and 300 mg B.I.D.).\nTime to doubling of baseline serum creatinine was measured. Study participants were also treated with standard measures for blood pressure control, and diabetes management, including insulin treatment, diet, and exercise. Serum creatinine levels were made at baseline and randomization visits, at the end of weeks 1-6, the end of month 2, the end of month 3, and then every 3 months for the remainder of the study. “Baseline serum creatinine” was the mean of the levels at the baseline and randomization visits. If the level at any subsequent visit was at least two times the baseline, and was confirmed by a second measurement, the patient was considered to have experienced a doubling of baseline serum creatinine. Serum creatinine levels were determined by a clinical laboratory (SciCor Inc., 8211 SciCor Drive, Indianapolis, Ind. 46214-2985)."}, "diabetic rats": {"tested_on": "diabetic rats", "settings": "cited from earlier work"}, "[2]": {"tested_on": "red blood cell (RBC) deformability", "settings": "in vivo; cited from earlier work"}, "[3]": {"tested_on": "patients suffering from Type I diabetes with overt diabetic nephropathy", "assay": "Same clinical study: progression of diabetic retinopathy, three or more steps in ETDRS scale", "assay_type": "in vivo, human"}, "[4]": {"tested_on": "patients suffering from Type I diabetes with overt diabetic nephropathy", "assay": "Same clinical study: 24 hour urinary protein excretion", "assay_type": "in vivo, human", "method": "as §1\n(FIG. 1). The reduction was generally first observed at the first post-randomization evaluation (at three months) and increased in magnitude over the duration of the study. […] (FIG. 2)."}, "kidney": {"tested_on": "kidney", "settings": "in vivo; cited from earlier work"}, "[5]": {"tested_on": "streptozotocin-diabetic rat", "settings": "streptozotocin-diabetic rat model; cited from earlier work"}},
  "data": [
    {"smiles": "N=C(N)NN", "note": "[Pimagedine, aminoguanidine]", "values": [
      {"measurement": "Patients with adjudicated doubling of serum creatinine (%)", "setting": "[1]; Baseline serum creatinine less than 1.5 mg/dL, Combined", "result": "(10%)"},
      {"measurement": "Odds ratio, doubling of serum creatinine", "setting": "[1]; Baseline serum creatinine less than 1.5 mg/dL, Combined versus placebo", "result": 0.59},
      {"measurement": "Patients with adjudicated doubling of serum creatinine (%)", "setting": "[1]; Baseline serum creatinine less than 1.5 mg/dL, High Dose", "result": "(10%)"},
      {"measurement": "Odds ratio, doubling of serum creatinine", "setting": "[1]; Baseline serum creatinine less than 1.5 mg/dL, High Dose versus placebo", "result": 0.52},
      {"measurement": "Patients with adjudicated doubling of serum creatinine (%)", "setting": "[1]; Baseline serum creatinine less than 1.5 mg/dL, Low Dose", "result": "(11%)"},
      {"measurement": "Odds ratio, doubling of serum creatinine", "setting": "[1]; Baseline serum creatinine less than 1.5 mg/dL, Low Dose versus placebo", "result": 0.64},
      {"measurement": "Patients with adjudicated doubling of serum creatinine (%)", "setting": "[1]; Combined doses", "result": "(20%)"},
      {"measurement": "Odds ratio, doubling of serum creatinine", "setting": "[1]; Combined versus placebo", "result": 0.73},
      {"measurement": "Patients with adjudicated doubling of serum creatinine (%)", "setting": "[1]; High Dose (300 mg B.I.D.), listed as pimagendine", "result": 20, "unit": "%"},
      {"measurement": "Odds ratio, doubling of serum creatinine", "setting": "[1]; High Dose versus placebo", "result": 0.73},
      {"measurement": "Patients with adjudicated doubling of serum creatinine (%)", "setting": "[1]; Low Dose (150 mg B.I.D.)", "result": "(20%)"},
      {"measurement": "Patients with adjudicated doubling of serum creatinine (%)", "setting": "[1]; Low Dose (150 mg B.I.D.), listed as pimagendine", "result": 20, "unit": "%"},
      {"measurement": "Odds ratio, doubling of serum creatinine", "setting": "[1]; Low Dose versus placebo", "result": 0.72},
      {"measurement": "Reduction in the risk of doubling serum creatinine", "setting": "[1]; all patients, versus placebo", "result": 29, "unit": "%"},
      {"measurement": "Patients with adjudicated doubling of serum creatinine (%)", "setting": "[1]; high dose (300 mg B.I.D.)", "result": "(20%)"},
      {"measurement": "Reduction of the risk of doubling serum creatinine", "setting": "[1]; patients with a baseline serum creatinine of less than 1.5 mg/dL", "result": 63, "unit": "%"},
      {"measurement": "Aortic wall protein cross-linking", "setting": "diabetic rats", "result": "diminishes"},
      {"measurement": "Diabetes-induced changes in the deformability of red blood cells", "setting": "[2]", "result": "prevent"},
      {"measurement": "% of patients with a ≧ 3 step progression in ETDRS score", "setting": "[3]; Combined", "result": "(10%)"},
      {"measurement": "Logistic regression model odds ratio, ≧ 3 step retinopathy progression", "setting": "[3]; Combined versus placebo", "result": 0.53},
      {"measurement": "% of patients with a ≧ 3 step progression in ETDRS score", "setting": "[3]; High Dose", "result": "(8%)"},
      {"measurement": "Logistic regression model odds ratio, ≧ 3 step retinopathy progression", "setting": "[3]; High Dose versus placebo", "result": 0.68},
      {"measurement": "% of patients with a ≧ 3 step progression in ETDRS score", "setting": "[3]; Low Dose", "result": "(11%)"},
      {"measurement": "Logistic regression model odds ratio, ≧ 3 step retinopathy progression", "setting": "[3]; Low Dose versus placebo", "result": 0.58},
      {"measurement": "Incidence of progression of retinopathy from baseline to endpoint", "setting": "[3]; progression of three or more steps in ETDRS scale", "result": "decreased"},
      {"measurement": "24 hour urinary protein excretion", "setting": "[4]; high dose (300 mg B.I.D.)", "result": "statistically significant reductions"},
      {"measurement": "24 hour urinary protein excretion", "setting": "[4]; low dose (150 mg B.I.D.)", "result": "statistically significant reductions"},
      {"measurement": "Effect on proteinuria", "setting": "[4]; patients with a baseline serum creatinine of less than 1.5 mg/dL compared with whole population", "result": "greater effect"},
      {"measurement": "Immunoglobulin trapping in the kidney", "setting": "kidney", "result": "reduction"},
      {"measurement": "Increased glomerular basement membrane thickness", "setting": "[5]", "result": "prevented"}
    ]}
  ]
}
